From patent publication US11046709B2, “Fused 1,4-diazepines as BET bromodomain inhibitors” (THE REGENTS OF THE UNIVERSITY OF MICHIGAN, priority 2017, dated 2021) come the findings set out here.

Usually IC50 stands for the concentration needed to halve the response being measured.

For assay [1], the system named is MDA-MB-231. The experiment in a line: Cell growth inhibition, 4-day proliferation assay, MDA-MB-231. Conditions: Homo sapiens. Format: cell-based. As to the method: (§1) The effect of representative Compounds of the Disclosure on cell viability was determined in a 4-day proliferation assay. Cells were maintained in the appropriate culture medium with 100/0 FBS at 37° C. and an atmosphere of 5% CO2. All the cell lines were used within three months of thawing fresh vials.
(§2) In general, cells were seeded in 96-well flat bottom (Corning COSTAR, Corning, N.Y., cat #3595) or white opaque cell culture plates (BD Falcon, cat #353296) at a density of 3,000-10,000 cells/well in 75 μl of culture medium. Compounds were serially diluted in the appropriate medium, and 75 μl of the diluted compounds were added to the appropriate wells of the cell plate. After the addition of compounds, the cells were incubated at 37° C. in an atmosphere of 5% CO2 for 4 days. Cell viability was determined using the CellTiter-Glo® Luminescent Cell Viability Assay Kit (Promega, Madison, Wis.) for leukemia cells and WST (2-(2-methoxy-4-nitrophenyl)-3-(4-nitrophenyl)-5-(2,4-disulfophenyl)-2H-tetrazolium, monosodium salt) Cell Counting-8 Kit (Dojindo Molecular Technologies, Inc., Rockville, Md.) for adherent cells according to the manufacturers' instructions.
(§3) For WST assay (adherent cells), WST-8 reagent was added to each well at a final concentration of 10% (v/v), and then the plates were incubated at 37° C. for 1-2 hours for color development. The absorbance was measured at 450 nm using a SPECTRAmax PLUS plate reader (Molecular Devices, Sunnyvale, Calif.). The readings were normalized to the DMSO-treated cells and the half maximal inhibitory concentration (IC50) was calculated by nonlinear regression (four parameters sigmoid fitted with variable slope, least squares fit, and no constraint) analysis using the GraphPad Prism 5 software (GraphPad Software, La Jolla, Calif.).
(§4) For CellTiter-Glo assay (suspension cells), 100 μl of CellTiter-Glo® Reagent was added to each well, and then the plates were incubated at room temperature for 10-20 minutes. The luminescent signal was measured using a Tecan Infinite M1000 multimode microplate reader (Tecan, Morrisville, N.C.). The readings were normalized to the DMSO-treated cells and the IC50 was calculated by nonlinear regression (four parameters sigmoid fitted with variable slope, least squares fit, and no constraint) analysis using the GraphPad Prism 5 software. See US 2014/0256706.
(§5) For a number of representative compounds in Table 5, their IC50 values in cell growth inhibition activity in the RS4;11 and MOLM-13 human leukemia cell lines and the MDA-MB-231 breast cancer cell line were evaluated using the WST-8 assay described in EXAMPLE 7, with the data shown in Table 7.

For assay [2], the system named is MOLM-13. Put plainly: Cell growth inhibition, 4-day proliferation assay, MOLM-13. Format: cell-based. Conditions: Homo sapiens. As to the method: as §1, §2, §3, §4, §5
Where [3] appears, read: MDA-MB-231, WST-8 assay, Table 7, read-out: Cell growth inhibition (IC50 (nM)) MDA-MB-231.
[4] abbreviates: MOLM-13, WST-8 assay, Table 7, read-out: Cell growth inhibition (IC50 (nM)) MOLM-13.

Where two headings read alike, the source gives them in different places. A value given as a limit tells only on which side of the number the result lay.

As for `Cc1c(C#Cc2ccccn2)sc2c1C(c1ccc(Cl)cc1)=N[C@@H](CC(=O)N1CC(C)(O)C1)c1nnc(C)n1-2` [Compound 138, (S)-2-(4-(4-chlorophenyl)-3,9-dimethyl-2-(pyridin-2-ylethynyl)-6H-thieno[3,2-f][1,2,4]triazolo[4,3-a][1,4]diazepin-6-yl)-1-(3-hydroxy-3-methylazetidin-1-yl)ethan-1-one], the IC50 in assay [1] (setting [3]) is 211 nM; in assay [2] (setting [4]) it was 15 to 30 nM. Take `Cc1c(C#Cc2cnn(C)c2)sc2c1C(c1ccc(Cl)cc1)=N[C@@H](CC(=O)N1CCN(C(=O)OC(C)(C)C)CC1)c1nnc(C)n1-2` [Compound 160, tert-butyl (S)-4-(2-(4-(4-chlorophenyl)-3,9-dimethyl-2-((1-methyl-1H-pyrazol-4-yl)ethynyl)-6H-thieno[3,2-f][1,2,4]triazolo[4,3-a][1,4]diazepin-6-yl)acetyl)piperazine-1-carboxylate]: the IC50 was found to be 108 nM in assay [1] (setting [3]) and 8.5 nM in assay [2] (setting [4]). In the same order, the values of `Cc1c(C#Cc2ccccn2)sc2c1C(c1ccc(Cl)cc1)=N[C@@H](CC(=O)N1CCC(C)(O)CC1)c1nnc(C)n1-2` [Compound 137, (S)-2-(4-(4-chlorophenyl)-3,9-dimethyl-2-(pyridin-2-ylethynyl)-6H-thieno[3,2-f][1,2,4]triazolo[4,3-a][1,4]diazepin-6-yl)-1-(4-hydroxy-4-methylpiperidin-1-yl)ethan-1-one] are greater than 10000 nM and 43200 nM. Consider `Cc1nnc(C[C@@H]2N=C(c3ccc(Cl)cc3)c3c(sc(C#CC(C)C)c3C)-n3c(C)nnc32)o1` [Compound 148, (S)-2-((4-(4-chlorophenyl)-3,9-dimethyl-2-(3-methylbut-1-yn-1-yl)-6H-thieno[3,2-f][1,2,4]triazolo[4,3-a][1,4]diazepin-6-yl)methyl)-5-methyl-1,3,4-oxadiazole], for which the values for the IC50 in assay [1] (setting [3]) and in assay [2] (setting [4]) were 7.7 nM and 6 nM, respectively. For the compound `Cc1nnc(C[C@@H]2N=C(c3ccc(Cl)cc3)c3c(sc(C#CC4CCCC4)c3C)-n3c(C)nnc32)o1` [Compound 146, (S)-2-((4-(4-chlorophenyl)-2-(cyclopentylethynyl)-3,9-dimethyl-6H-thieno[3,2-f][1,2,4]triazolo[4,3-a][1,4]diazepin-6-yl)methyl)-5-methyl-1,3,4-oxadiazole], the IC50 came out at 22.5 nM in assay [1] (setting [3]) and 17.4 nM in assay [2] (setting [4]). As to `Cc1c(C#Cc2ccc(O)cn2)sc2c1C(c1ccc(Cl)cc1)=N[C@@H](C)c1nnc(C)n1-2` [Cpd. No. 42], the IC50 in assay [1] (MDA-MB-231, 96 h, read-out: Cell IC50 (nM) MDA-MB-231) turned out to be 7.9 nM; in assay [2] (MOLM-13, 96 h, read-out: Cell IC50 (nM) MOLM13) it was 10.6 nM. With `Cc1c(C#Cc2ccccn2)sc2c1C(c1ccc(Cl)cc1)=N[C@@H](CC(=O)NC1CCOCC1)c1nnc(C)n1-2` [Compound 133, (S)-2-(4-(4-chlorophenyl)-3,9-dimethyl-2-(pyridin-2-ylethynyl)-6H-thieno[3,2-f][1,2,4]triazolo[4,3-a][1,4]diazepin-6-yl)-N-(tetrahydro-2H-pyran-4-yl)acetamide], the concentration for half-maximal inhibition (IC50) in assay [1] (setting [3]) was 338 nM; in assay [2] (setting [4]) it was 8.4 nM. In the case of `Cc1c(C#Cc2cnn(CCCC(=O)O)c2)sc2c1C(c1ccc(Cl)cc1)=N[C@@H](C)c1nnc(C)n1-2` [Compound 101, (S)-4-(4-((4-(4-chlorophenyl)-3,6,9-trimethyl-6H-thieno[3,2-f][1,2,4]triazolo[4,3-a][1,4]diazepin-2-yl)ethynyl)-1H-pyrazol-1-yl)butanoic acid], in assay [1] (setting [3]), the 50% inhibitory concentration (IC50) amounted to 1030 ± 700 nM. In the case of `Cc1nnc(C[C@@H]2N=C(c3ccc(Cl)cc3)c3c(sc(C#CC(C)(C)C)c3C)-n3c(C)nnc32)o1` [Compound 147, (S)-2-((4-(4-chlorophenyl)-2-(3,3-dimethylbut-1-yn-1-yl)-3,9-dimethyl-6H-thieno[3,2-f][1,2,4]triazolo[4,3-a][1,4]diazepin-6-yl)methyl)-5-methyl-1,3,4-oxadiazole], the IC50 came out at 20.1 nM in assay [1] (setting [3]) and 7.4 nM in assay [2] (setting [4]). For the compound `Cc1c(C#Cc2cnn(CCC(=O)O)c2)sc2c1C(c1ccc(Cl)cc1)=N[C@@H](C)c1nnc(C)n1-2` [Compound 102, (S)-3-(4-((4-(4-chlorophenyl)-3,6,9-trimethyl-6H-thieno[3,2-f][1,2,4]triazolo[4,3-a][1,4]diazepin-2-yl)ethynyl)-1H-pyrazol-1-yl)propanoic acid], in assay [1] (MDA-MB-231, read-out: Cell growth inhibition (IC50 (nM)) MDA-MB-231), the IC50 is 3000 ± 300 nM. `Cc1c(C#Cc2cnn(C)c2)sc2c1C(c1ccc(Cl)cc1)=N[C@@H](CC(=O)N1CCNCC1)c1nnc(C)n1-2` [Compound 161, (S)-2-(4-(4-chlorophenyl)-3,9-dimethyl-2-((1-methyl-1H-pyrazol-4-yl)ethynyl)-6H-thieno[3,2-f][1,2,4]triazolo[4,3-a][1,4]diazepin-6-yl)-1-(piperazin-1-yl)ethan-1-one]: the IC50 was found to be 76.2 nM in assay [1] (setting [3]) and 10.9 nM in assay [2] (setting [4]).

For `Cc1nnc(C[C@@H]2N=C(c3ccc(Cl)cc3)c3c(sc(C#Cc4cnn(C)c4)c3C)-n3c(C)nnc32)o1` [Compound 141, (S)-2-((4-(4-chlorophenyl)-3,9-dimethyl-2-((1-methyl-1H-pyrazol-4-yl)ethynyl)-6H-thieno[3,2-f][1,2,4]triazolo[4,3-a][1,4]diazepin-6-yl)methyl)-5-methyl-1,3,4-oxadiazole], the IC50 in assay [1] (setting [3]) stood at 31.2 nM; in assay [2] (setting [4]), 1.7 nM. Regarding `Cc1c(C#Cc2ccccn2)sc2c1C(c1ccc(Cl)cc1)=N[C@@H](CC(=O)N1CCC(F)CC1)c1nnc(C)n1-2` [Compound 173, (S)-2-(4-(4-chlorophenyl)-3,9-dimethyl-2-(pyridin-2-ylethynyl)-6H-thieno[3,2-f][1,2,4]triazolo[4,3-a][1,4]diazepin-6-yl)-1-(4-fluoropiperidin-1-yl)ethan-1-one], in assay [1] (setting [3]), the IC50 came out at 9.67 nM. Turning to `Cc1c(C#Cc2ccccn2)sc2c1C(c1ccc(Cl)cc1)=N[C@@H](CC(=O)N1CC3(CNC3)C1)c1nnc(C)n1-2` [Compound 170, (S)-2-(4-(4-chlorophenyl)-3,9-dimethyl-2-(pyridin-2-ylethynyl)-6H-thieno[3,2-f][1,2,4]triazolo[4,3-a][1,4]diazepin-6-yl)-1-(2,6-diazaspiro[3.3]heptan-2-yl)ethan-1-one], in assay [2] (setting [4]), the concentration for half-maximal inhibition (IC50) was 115 nM.

On to `Cc1c(C#Cc2ccccn2)sc2c1C(c1ccc(Cl)cc1)=N[C@@H](CC(=O)N1CCC(F)(F)C1)c1nnc(C)n1-2` [Compound 171, (S)-2-(4-(4-chlorophenyl)-3,9-dimethyl-2-(pyridin-2-ylethynyl)-6H-thieno[3,2-f][1,2,4]triazolo[4,3-a][1,4]diazepin-6-yl)-1-(3,3-difluoropyrrolidin-1-yl)ethan-1-one], for which the half-maximal inhibitory concentration (IC50) in assay [2] (setting [4]) turned out to be 151 nM.

Consider `Cc1c(C#Cc2cncn2C)sc2c1C(c1ccc(Cl)cc1)=N[C@@H](CC(=O)N1CCN(C)CC1)c1nnc(C)n1-2` [Compound 165, (S)-2-(4-(4-chlorophenyl)-3,9-dimethyl-2-((1-methyl-1H-imidazol-5-yl)ethynyl)-6H-thieno[3,2-f][1,2,4]triazolo[4,3-a][1,4]diazepin-6-yl)-1-(4-methylpiperazin-1-yl)ethan-1-one], for which the IC50 in assay [2] (setting [4]) is 36.4 nM. For `Cc1c(C#Cc2ccccn2)sc2c1C(c1ccc(Cl)cc1)=N[C@@H](CC(=O)N1CCCC(F)(F)C1)c1nnc(C)n1-2` [Compound 172, (S)-2-(4-(4-chlorophenyl)-3,9-dimethyl-2-(pyridin-2-ylethynyl)-6H-thieno[3,2-f][1,2,4]triazolo[4,3-a][1,4]diazepin-6-yl)-1-(3,3-difluoropiperidin-1-yl)ethan-1-one], the IC50 in assay [2] (setting [4]) was found to be 71 nM.
